Test results published in publication PMC4300089, “Structure-Guided Design of Selective Epac1 and Epac2 Agonists” (PLoS Biology, 2015).

What was measured:
[1] = molecular target: T1, Epac2^Δ280 (Mus musculus, UniProt Q9EQZ6); test: Epac activation assay (Rap1B•mGDP fluorescence nucleotide exchange), Epac2^Δ280; assay type: biochemical; conditions: Epac2^Δ280; for Rel. kmax: maximal activity relative to cAMP
T1 construct: made in house
T1 sequence (Q9EQZ6 281-993 isoform Q9EQZ6-3): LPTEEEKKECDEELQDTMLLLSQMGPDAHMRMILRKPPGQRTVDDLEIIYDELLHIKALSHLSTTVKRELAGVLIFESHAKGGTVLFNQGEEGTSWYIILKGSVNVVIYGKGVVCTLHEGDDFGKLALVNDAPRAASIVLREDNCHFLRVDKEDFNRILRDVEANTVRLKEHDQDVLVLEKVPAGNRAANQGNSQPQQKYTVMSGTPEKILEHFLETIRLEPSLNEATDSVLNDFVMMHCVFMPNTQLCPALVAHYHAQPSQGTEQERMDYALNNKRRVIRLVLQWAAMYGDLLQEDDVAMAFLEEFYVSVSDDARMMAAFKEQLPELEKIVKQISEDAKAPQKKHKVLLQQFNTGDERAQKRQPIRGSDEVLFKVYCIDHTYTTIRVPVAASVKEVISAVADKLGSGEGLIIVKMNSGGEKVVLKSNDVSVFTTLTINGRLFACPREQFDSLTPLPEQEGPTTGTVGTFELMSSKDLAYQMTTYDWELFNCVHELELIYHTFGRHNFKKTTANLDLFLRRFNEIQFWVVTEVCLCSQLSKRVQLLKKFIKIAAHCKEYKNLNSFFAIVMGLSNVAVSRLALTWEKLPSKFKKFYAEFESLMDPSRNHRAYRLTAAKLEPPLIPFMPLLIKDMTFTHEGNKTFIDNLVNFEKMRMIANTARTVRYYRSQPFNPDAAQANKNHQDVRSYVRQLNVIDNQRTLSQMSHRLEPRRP
Procedure: Murine Epac2 was used as all previous structural studies were performed with it.
The activity of Epac was determined by a fluorescence assay. […] The fluorescence intensity of Rap1B•mGDP is approximately twice that of free mGDP, and thus, nucleotide exchange can be observed as a decay in fluorescence upon the addition of excess unlabeled GDP.

[2] = molecular target: T2, Epac1 (Homo sapiens, UniProt O95398); test: Epac activation assay, Epac1; assay type: biochemical; conditions: Epac1; for Rel. kmax: maximal activity relative to cAMP
T2 construct: made in house
T2 sequence (O95398 150-881 isoform O95398-3): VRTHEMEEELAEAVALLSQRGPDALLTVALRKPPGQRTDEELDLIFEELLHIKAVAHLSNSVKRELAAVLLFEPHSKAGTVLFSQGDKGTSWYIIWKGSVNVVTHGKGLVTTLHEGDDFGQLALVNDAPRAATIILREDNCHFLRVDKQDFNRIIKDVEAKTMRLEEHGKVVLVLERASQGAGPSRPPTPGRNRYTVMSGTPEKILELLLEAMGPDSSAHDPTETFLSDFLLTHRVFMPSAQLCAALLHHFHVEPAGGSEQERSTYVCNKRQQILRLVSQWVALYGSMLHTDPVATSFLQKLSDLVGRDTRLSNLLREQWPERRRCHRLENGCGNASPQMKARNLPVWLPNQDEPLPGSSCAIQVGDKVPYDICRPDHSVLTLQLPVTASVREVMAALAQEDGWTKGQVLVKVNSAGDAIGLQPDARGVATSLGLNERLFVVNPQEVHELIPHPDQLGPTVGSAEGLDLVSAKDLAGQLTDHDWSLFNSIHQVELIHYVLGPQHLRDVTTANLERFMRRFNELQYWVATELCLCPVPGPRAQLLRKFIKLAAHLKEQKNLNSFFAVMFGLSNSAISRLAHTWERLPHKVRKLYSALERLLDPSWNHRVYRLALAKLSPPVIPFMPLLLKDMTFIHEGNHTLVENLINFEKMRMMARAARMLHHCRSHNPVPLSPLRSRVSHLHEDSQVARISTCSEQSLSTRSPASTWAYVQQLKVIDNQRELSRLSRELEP

| Compound | AC50 [1] [µM] | Rel. kmax [1] | AC50 [2] [µM] | Rel. kmax [2] |
| --- | --- | --- | --- | --- |
| CNc1nc2c(N)ncnc2n1[C@@H]1O[C@@H]2COP(=O)(O)O[C@H]2[C@H]1Cl [D-001, 8-MeA-2′-Cl-cAMP] | 45 | 2.2 | 330 | ~0.6? |
| Nc1ncnc2c1nc(Br)n2[C@@H]1O[C@@H]2COP(=O)(O)O[C@H]2[C@H]1Cl [D-003, 8-Br-2′-Cl-cAMP] | 11 | 0.9 | 260 | ~0.5? |
| Nc1ncnc2c1nc(Br)n2[C@@H]1O[C@@H]2COP(=O)(O)O[C@H]2[C@H]1F [D-004, 8-Br-2′-F-cAMP] | 14 | 1.5 | 100 | 0.4 |
| CO[C@H]1C2OP(=O)(O)OC[C@H]2O[C@H]1n1c(Br)nc2c(N)ncnc21 (stereo partly drawn) [D-005, 8-Br-2′-O-Me-cAMP] | 8 | 1.6 | 35 | 0.9 |
| CO[C@@H]1[C@@H]2OP(=O)(O)OC[C@H]2O[C@H]1n1c(Sc2ccc(O)cc2)nc2c(N)ncnc21 [D-008, 8-pOHPT-2′-O-Me-cAMP] | 1.5 | 2.2 | 1 | 3.1 |
| COc1ccc(Sc2nc3c(N)ncnc3n2[C@@H]2O[C@@H]3COP(=O)(O)OC3[C@@H]2OC)cc1 (stereo partly drawn) [D-009, 8-pMeOPT-2′-O-Me-cAMP] | 2.8 | 0.5 | 2.3 | 2.7 |
| Nc1ncnc2c1nc([Se]Cc1ccccc1)n2[C@@H]1O[C@@H]2COP(=O)(O)O[C@H]2[C@H]1OCc1ccccc1 [D-012, 8-BnSe-2′-O-Bn-cAMP] | 4.6 | 1.0 | 38 | 0.9 |
| Nc1ncnc2c1nc(NC1CCCCC1)n2[C@@H]1O[C@@H]2COP(=O)(O)O[C@H]2[C@H]1O [L-013, 8-cHA-cAMP] | 4.7 | 0.3 | 50 | 0.3 |
| Nc1ncnc2c1nc(NCc1ccccc1)n2[C@@H]1O[C@@H]2COP(=O)(O)O[C@H]2[C@H]1O [L-014, 8-BnA-cAMP] | 1.9 | 1.5 | 30 | 0.2 |
| Nc1ncnc2c1nc(Br)n2[C@@H]1O[C@@H]2CO[P@](O)(=S)O[C@H]2[C@H]1F [S-012, Sp-8-Br-2′-F-cAMPS] | 9.8 | 1.2 | 75 | 0.08 |
| Nc1ncnc2c1nc(Br)n2[C@@H]1O[C@@H]2CO[P@](O)(=S)O[C@H]2[C@H]1Cl [S-013, Sp-8-Br-2′-Cl-cAMPS] | 8 | 0.5 | 110 | 0.1 |
| CNc1nc2c(N)ncnc2n1[C@H]1C[C@@H]2O[P@@](O)(=S)OC[C@H]2O1 [S-031, Sp-8-MeA-2′-dcAMPS] | 40 | 1.7 | 320 | 0.1 |
| CNc1nc2c(N)ncnc2n1[C@@H]1O[C@@H]2CO[P@](O)(=S)O[C@H]2[C@H]1Cl [S-033, Sp-8-MeA-2′-Cl-cAMPS] | 14 | 0.7 | 120 | 0.1 |
| Nc1ncnc2c1nc(O)n2[C@@H]1O[C@@H]2CO[P@](O)(=S)O[C@H]2[C@H]1O [S-130, Sp-8-OH-cAMPS] | 1.3 | 1.4 | 80 | 0.6 |
| Nc1ncnc2c1nc(SCCc1ccccc1)n2[C@@H]1O[C@@H]2CO[P@](O)(=S)O[C@H]2[C@H]1O [S-190, Sp-8-PheET-cAMPS] | 0.14 | 0.4 | 6 | 0.2 |
| Nc1ncnc2c1nc(Sc1ccc(Cl)cc1)n2[C@@H]1O[C@@H]2COP([O-])(=S)O[C@H]2[C@H]1O.[Na+] (stereo partly shown) [S-210, Sp-8-pCPT-cAMPS] | 0.13 | 0.7 | 2.2 | 0.5 |

| Compound | AC50 [1] [µM] | Rel. kmax [1] | AC50 [2] [µM] | Rel. kmax [2] |
| --- | --- | --- | --- | --- |
| CO[C@H]1C2OP(O)(=S)OC[C@H]2O[C@H]1n1c(Sc2ccc(Cl)cc2)nc2c(N)ncnc21 (stereo partly shown) [S-211, Sp-8-pCPT-2′-O-Me-cAMPS] | 1.4 | 0.4 | 7.3 | 1.9 |
| Nc1ncnc2c1nc(SCc1ccccc1)n2[C@H]1C[C@@H]2O[P@@](O)(=S)OC[C@H]2O1 [S-221, Sp-8-BnT-2′-dcAMPS] | 10 | 1.5 | 280 | 0.06 |
| Nc1ncnc2c1nc(SCc1ccc(Cl)cc1)n2[C@@H]1O[C@@H]2CO[P@](O)(=S)O[C@H]2[C@H]1O [S-260, Sp-8-pCBnT-cAMPS] | 0.08 | 4.3 |  |  |
| Nc1ncnc2c1nc(SCc1ccccc1Cl)n2[C@@H]1O[C@@H]2CO[P@](O)(=S)O[C@H]2[C@H]1O [S-270, Sp-8-oCBnT-cAMPS] | 0.27 | 3.1 | 16 | 0.2 |
| Nc1ncnc2c1nc(SCc1ccc(F)cc1)n2[C@@H]1O[C@@H]2CO[P@](O)(=S)O[C@H]2[C@H]1O [S-280, Sp-8-pFBnT-cAMPS] | 0.11 | 4.9 |  |  |
| Nc1ncnc2c1nc(SCc1cccc([N+](=O)[O-])c1)n2[C@@H]1O[C@@H]2CO[P@](O)(=S)O[C@H]2[C@H]1O [S-290, Sp-8-mNBnT-cAMPS] | 0.16 | 4.3 |  |  |
| Nc1ncnc2c1nc(SCc1cccc(C(F)(F)F)c1)n2[C@@H]1O[C@@H]2CO[P@](O)(=S)O[C@H]2[C@H]1O [S-300, Sp-8-mTFMeBnT-cAMPS] | 0.14 | 5.0 |  |  |
| O[C@@H]1[C@@H]2OP(O)(=S)OC[C@H]2O[C@H]1n1cnc2cc(Cl)c(Cl)cc21 (stereo partly shown) [S-400, Sp-5,6-DCl-cBIMPS] | 0.9 | 0.8 | 14 | 1.0 |
| Nc1ncnc2c1ncn2[C@@H]1O[C@@H]2COP(=O)(O)O[C@H]2[C@H]1F [Z-002, 2′-F-cAMP] | 25 | 1.0 | 1500 |  |
| Nc1ncnc2c1ncn2[C@@H]1O[C@@H]2COP(=O)(O)O[C@H]2[C@H]1N [Z-003, 2′-NH2-cAMP] | 9 | 0.9 | 80 | 0.8 |
| CCCO[C@@H]1[C@@H]2OP(=O)(O)OC[C@H]2O[C@H]1n1cnc2c(N)ncnc21 [Z-005, 2′-O-Pr-cAMP] | 70 | 0.5 |  |  |
| CCCCO[C@@H]1[C@@H]2OP(=O)(O)OC[C@H]2O[C@H]1n1cnc2c(N)ncnc21 [Z-006, 2′-O-Bu-cAMP] | 120 | 1.0 |  |  |
| C=CCO[C@@H]1[C@@H]2OP(=O)(O)OC[C@H]2O[C@H]1n1cnc2c(N)ncnc21 [Z-007, 2′-O-All-cAMP] | 70 | 1.0 |  |  |
| Nc1ncnc2c1ncn2[C@@H]1O[C@@H]2COP(=O)(O)O[C@H]2[C@H]1OCc1ccccc1 [Z-008, 2′-O-Bn-cAMP] | 35 | 0.4 | 75 | 1.5 |
| Sp-8-ADOA-cAMPS [S-060] | 6.2 | 2.1 |  |  |
| Sp-8-PIA-cAMPS [S-120] | 14 | 2.3 |  |  |
